According to patent US4032656A, “Aromatic prostaglandin derivatives” (SmithKline Corporation, priority 1975, dated 1977):

Key:
prostaglandin synthesis = assay: Inhibition of prostaglandin synthesis (arachidonic acid-dependent formation of adrenochrome from L-epinephrine during prostaglandin biosynthesis; Takeguchi and Sih); assay type: biochemical; settings: for IC50: read-out: ID50 (the source's name)
Text: The prostaglandin synthesis inhibition method as employed is reported by Takeguchi and Sih, Prostaglandins, 2, 169, 1972. The principle entails the arachidonic acid-dependent formation of adrenochrome from L-epinephrine during prostaglandin biosynthesis. Indomethacin, phenylbutazone and aspirin were used as reference compounds.

PGE2 diarrhea in mice = assay: Antagonism of diarrhea induced by prostaglandin E2 (PGE2); assay type: in vivo; settings: 20 mg./kg., subcutaneously 15 minutes prior to intraperitoneal PGE2, examined every 15 minutes for one hour
Method: The antagonism of diarrhea induced by prostaglandin E2 (PGE2) was determined by employing the modified standard animal pharmacological test procedure as reported in Intra Science Chem. Rept, 6:1-9, 1972 and Annals of the New York Academy of Sciences, 180:386-95, 1971. Briefly the test comprises administering the test compounds subcutaneously 15 minutes prior to an intraperitoneal injection of PGE2. Each animal is examined for diarrhea (which results after the administration of PGE2) every 15 minutes for one hour post-drug. Polyphloretin phosphate and 7 oxa-13-prostynoic acid, both well known antagonists of prostaglandin induced diarrhea, were employed as reference compounds.

[1] = prostaglandin synthesis inhibition

Compound | IC50 (prostaglandin synthesis; [1]) [µM] | inhibition of PGE2 diarrhea in mice (PGE2 diarrhea in mice) [%] | further results
CC(=O)Oc1ccccc1C(=O)O [aspirin, reference compound] | 3700 | – | –
CCCCCC(O)/C=C/c1ccccc1CCCCCCC(=O)OC (stereo not drawn) [1-(6-carbomethoxyhexyl)-2-(3-hydroxy-trans-1-octenyl)benzene] | – | 53 | –
polyphloretin phosphate [reference compound] | – | 36 | –

Continued, in another order:

IC50 (prostaglandin synthesis; [1]) [µM] | Compound | inhibition of PGE2 diarrhea in mice (PGE2 diarrhea in mice) [%] | further results
410 | CCCCCC(O)/C=C/c1ccccc1CCCCCCC(=O)O (stereo not drawn) [1-(6-carboxyhexyl)-2-(3-hydroxy-trans-1-octenyl)benzene] | – | inhibition of prostaglandin synthesis (prostaglandin synthesis; at 1000 μM): 100%; potency as inhibitor relative to aspirin (prostaglandin synthesis; ratio of ID50's, prostaglandin synthesis inhibition, vs aspirin): nine times as potent; potency as inhibitor relative to phenylbutazone (prostaglandin synthesis; ratio of ID50's, prostaglandin synthesis inhibition, vs phenylbutazone): twice as potent
875 | CCCCC1C(=O)N(c2ccccc2)N(c2ccccc2)C1=O [phenylbutazone, reference compound] | – | –
